Measured values reported in EPA's ToxValDB 9.5 (doi:10.2903/j.efsa.2019.5821).
In brackets after ≈: the same amount, converted by molar mass.

How the values were obtained:
Rattus norvegicus = conditions: for NOAEL: body weight
Oryctolagus sp. = conditions: developmental; development
Oncorhynchus mykiss = conditions: acute; duration: 96 hours; mortality
Daphnia magna = conditions: chronic/long-term; duration: 21 days; reproduction
Folsomia candida = conditions: chronic/long-term; duration: 28 days; mortality
Apis mellifera = conditions: acute, mortality
Mus musculus = conditions: chronic; duration: 18 months; body weight
Tagia sp. = conditions: chronic/long-term; duration: 56 days; reproduction
Typhlodromus pyri = assay: LR50; higher = less toxic; conditions: not reported; mortality

SMILES | NOAEL (Rattus norvegicus; short-term, duration: 28 days) [mg/kg-day] | NOAEL (Oryctolagus sp.) [mg/kg-day] | LC50 (Oncorhynchus mykiss) [mg/L] | LC50 (Colinus virginianus; acute, oral, diet, mortality) [mg/kg-day] | LD50 (Colinus virginianus; acute, oral, mortality) [mg/kg-day] | NOEC (Colinus virginianus; reproduction developmental) [mg/kg-day] | NOEC (Daphnia magna) [mg/L] | NOEC (Folsomia candida) [mg/kg] | LD50 (Apis mellifera; dermal) [µg/piece] | LD50 (Apis mellifera; oral, unspecified) [µg/piece] | NOAEL (Mus musculus) [mg/kg-day] | NOEC (Tagia sp.) [mg/kg] | LD50 (Rattus norvegicus; acute, oral, mortality) [mg/kg-day] | NOAEL (Rattus norvegicus; reproduction developmental) [mg/kg-day] | LR50 (Typhlodromus pyri) [g/ha]
Cn1cc(C(N)=O)c(C(F)F)n1 [3-(Difluoromethyl)-1-methyl-1H-pyrazole-4-carboxamide] | 37.4 |  |  |  |  |  |  |  |  |  |  |  |  |  | 
Cn1cc(C(=O)O)c(C(F)F)n1 [3-(Difluoromethyl)-1-methyl-1H-pyrazole-4-carboxylic acid] |  | 250 | > 100 |  |  |  |  |  |  |  |  |  |  |  | 
CON(C(=O)c1cn(C)nc1C(F)F)C(C)Cc1c(Cl)cc(Cl)cc1Cl (configuration not stated) [Pydiflumetofen] |  | 10 | 0.18 (≈ 0.422 µM) | > 1260 | 3780 | 90.1 | 0.042 | 186 | > 100 | > 116 | 9.2 | 15.9 | > 5000 | 30 | > 408
